For assay [1], the target named is T1, CBP (Homo sapiens, UniProt Q92793).
T1 construct: host or cells: A549 CBP HiBit cells
The assay can be described thus: CBP degradation, HiBit technology in A549 CBP HiBit cells (24 h). The class given is cell-based. The conditions noted are these: 24 hrs post treatment. The method, boiled down:
(§1)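 HiBiT knock-in A549 cells received compound in serial dilution at 37 °C under 5% CO2. Remaining tagged protein was quantified by lytic HiBiT luminescence after 10 min shaking at room temperature, yielding potency and maximal degradation.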

Assay [2] concerns the target T2, p300 (Homo sapiens, UniProt Q09472).
T2 construct: host or cells: A549 P300 HiBit cells
The assay can be described thus: P300 degradation, HiBit technology in A549 P300 HiBit cells (2 h). The settings on record: 2 hrs post treatment; for Dmax: A549, A549 P300 HiBit cells; for DC50: A549 P300 HiBit cells. The class given is cell-based. Put shortly:
as §1
(With HiBiT, luminescence reflects the tagged protein that the partner subunit can reach.)

T2 sequence (Q09472 whole entry): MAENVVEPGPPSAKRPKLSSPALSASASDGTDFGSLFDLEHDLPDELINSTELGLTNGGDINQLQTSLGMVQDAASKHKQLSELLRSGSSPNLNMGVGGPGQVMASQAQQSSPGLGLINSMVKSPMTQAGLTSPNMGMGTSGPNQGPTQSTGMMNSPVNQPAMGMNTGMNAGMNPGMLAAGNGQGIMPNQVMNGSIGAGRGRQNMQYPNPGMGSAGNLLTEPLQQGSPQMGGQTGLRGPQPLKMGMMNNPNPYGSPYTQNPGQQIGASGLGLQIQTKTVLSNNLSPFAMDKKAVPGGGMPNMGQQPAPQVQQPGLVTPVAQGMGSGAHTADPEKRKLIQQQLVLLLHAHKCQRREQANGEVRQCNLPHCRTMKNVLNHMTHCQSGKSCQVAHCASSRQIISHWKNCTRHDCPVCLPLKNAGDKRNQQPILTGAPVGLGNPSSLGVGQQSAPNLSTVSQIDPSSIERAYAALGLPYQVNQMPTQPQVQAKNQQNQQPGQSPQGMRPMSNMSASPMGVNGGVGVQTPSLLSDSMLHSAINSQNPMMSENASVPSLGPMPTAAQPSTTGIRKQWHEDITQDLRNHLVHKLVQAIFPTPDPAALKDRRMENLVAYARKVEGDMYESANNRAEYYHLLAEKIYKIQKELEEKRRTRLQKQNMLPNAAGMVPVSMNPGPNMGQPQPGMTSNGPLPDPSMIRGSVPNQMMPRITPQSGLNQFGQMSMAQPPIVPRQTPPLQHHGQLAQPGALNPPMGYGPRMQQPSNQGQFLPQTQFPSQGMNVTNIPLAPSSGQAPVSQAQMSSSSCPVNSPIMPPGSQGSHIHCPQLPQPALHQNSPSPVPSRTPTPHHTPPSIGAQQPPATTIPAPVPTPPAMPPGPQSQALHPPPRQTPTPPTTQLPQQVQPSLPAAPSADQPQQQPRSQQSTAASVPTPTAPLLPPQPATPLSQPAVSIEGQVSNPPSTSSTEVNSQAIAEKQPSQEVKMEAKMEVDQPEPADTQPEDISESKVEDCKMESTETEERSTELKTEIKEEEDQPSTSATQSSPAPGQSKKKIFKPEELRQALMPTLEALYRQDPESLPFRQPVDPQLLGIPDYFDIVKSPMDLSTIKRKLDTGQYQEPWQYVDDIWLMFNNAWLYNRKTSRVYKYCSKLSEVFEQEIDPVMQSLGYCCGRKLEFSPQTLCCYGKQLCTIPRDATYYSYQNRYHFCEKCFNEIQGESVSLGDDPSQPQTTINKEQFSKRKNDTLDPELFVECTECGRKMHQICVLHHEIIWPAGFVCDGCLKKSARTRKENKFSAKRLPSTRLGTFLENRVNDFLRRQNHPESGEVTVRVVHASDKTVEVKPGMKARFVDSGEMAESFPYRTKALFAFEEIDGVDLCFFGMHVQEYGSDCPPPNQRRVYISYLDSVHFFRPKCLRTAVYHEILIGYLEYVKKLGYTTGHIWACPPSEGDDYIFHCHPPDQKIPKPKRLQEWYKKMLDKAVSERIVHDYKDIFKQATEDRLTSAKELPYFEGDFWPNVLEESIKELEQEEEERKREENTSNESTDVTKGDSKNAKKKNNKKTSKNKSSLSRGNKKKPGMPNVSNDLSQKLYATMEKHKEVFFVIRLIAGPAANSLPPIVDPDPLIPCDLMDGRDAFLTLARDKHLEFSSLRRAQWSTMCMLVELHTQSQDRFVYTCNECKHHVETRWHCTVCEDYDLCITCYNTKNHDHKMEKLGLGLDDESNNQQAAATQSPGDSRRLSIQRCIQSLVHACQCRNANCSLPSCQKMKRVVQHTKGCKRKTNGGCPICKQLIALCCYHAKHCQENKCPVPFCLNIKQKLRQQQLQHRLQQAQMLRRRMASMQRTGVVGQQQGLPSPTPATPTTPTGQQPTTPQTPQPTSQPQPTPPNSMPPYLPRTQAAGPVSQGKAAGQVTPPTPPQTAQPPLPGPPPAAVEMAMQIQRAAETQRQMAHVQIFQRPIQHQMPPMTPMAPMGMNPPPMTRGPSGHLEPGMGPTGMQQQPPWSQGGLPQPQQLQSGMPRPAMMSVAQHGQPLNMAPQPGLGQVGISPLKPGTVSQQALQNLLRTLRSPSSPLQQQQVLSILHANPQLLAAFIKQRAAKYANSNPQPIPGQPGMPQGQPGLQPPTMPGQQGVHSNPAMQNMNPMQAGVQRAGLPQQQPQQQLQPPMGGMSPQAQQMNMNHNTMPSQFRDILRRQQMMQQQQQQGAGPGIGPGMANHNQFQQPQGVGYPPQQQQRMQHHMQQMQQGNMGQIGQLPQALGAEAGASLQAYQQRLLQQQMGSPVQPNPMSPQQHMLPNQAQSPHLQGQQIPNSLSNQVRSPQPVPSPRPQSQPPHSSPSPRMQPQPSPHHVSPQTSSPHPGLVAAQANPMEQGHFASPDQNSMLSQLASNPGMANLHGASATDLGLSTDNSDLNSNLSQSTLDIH
T1 sequence (Q92793 whole entry): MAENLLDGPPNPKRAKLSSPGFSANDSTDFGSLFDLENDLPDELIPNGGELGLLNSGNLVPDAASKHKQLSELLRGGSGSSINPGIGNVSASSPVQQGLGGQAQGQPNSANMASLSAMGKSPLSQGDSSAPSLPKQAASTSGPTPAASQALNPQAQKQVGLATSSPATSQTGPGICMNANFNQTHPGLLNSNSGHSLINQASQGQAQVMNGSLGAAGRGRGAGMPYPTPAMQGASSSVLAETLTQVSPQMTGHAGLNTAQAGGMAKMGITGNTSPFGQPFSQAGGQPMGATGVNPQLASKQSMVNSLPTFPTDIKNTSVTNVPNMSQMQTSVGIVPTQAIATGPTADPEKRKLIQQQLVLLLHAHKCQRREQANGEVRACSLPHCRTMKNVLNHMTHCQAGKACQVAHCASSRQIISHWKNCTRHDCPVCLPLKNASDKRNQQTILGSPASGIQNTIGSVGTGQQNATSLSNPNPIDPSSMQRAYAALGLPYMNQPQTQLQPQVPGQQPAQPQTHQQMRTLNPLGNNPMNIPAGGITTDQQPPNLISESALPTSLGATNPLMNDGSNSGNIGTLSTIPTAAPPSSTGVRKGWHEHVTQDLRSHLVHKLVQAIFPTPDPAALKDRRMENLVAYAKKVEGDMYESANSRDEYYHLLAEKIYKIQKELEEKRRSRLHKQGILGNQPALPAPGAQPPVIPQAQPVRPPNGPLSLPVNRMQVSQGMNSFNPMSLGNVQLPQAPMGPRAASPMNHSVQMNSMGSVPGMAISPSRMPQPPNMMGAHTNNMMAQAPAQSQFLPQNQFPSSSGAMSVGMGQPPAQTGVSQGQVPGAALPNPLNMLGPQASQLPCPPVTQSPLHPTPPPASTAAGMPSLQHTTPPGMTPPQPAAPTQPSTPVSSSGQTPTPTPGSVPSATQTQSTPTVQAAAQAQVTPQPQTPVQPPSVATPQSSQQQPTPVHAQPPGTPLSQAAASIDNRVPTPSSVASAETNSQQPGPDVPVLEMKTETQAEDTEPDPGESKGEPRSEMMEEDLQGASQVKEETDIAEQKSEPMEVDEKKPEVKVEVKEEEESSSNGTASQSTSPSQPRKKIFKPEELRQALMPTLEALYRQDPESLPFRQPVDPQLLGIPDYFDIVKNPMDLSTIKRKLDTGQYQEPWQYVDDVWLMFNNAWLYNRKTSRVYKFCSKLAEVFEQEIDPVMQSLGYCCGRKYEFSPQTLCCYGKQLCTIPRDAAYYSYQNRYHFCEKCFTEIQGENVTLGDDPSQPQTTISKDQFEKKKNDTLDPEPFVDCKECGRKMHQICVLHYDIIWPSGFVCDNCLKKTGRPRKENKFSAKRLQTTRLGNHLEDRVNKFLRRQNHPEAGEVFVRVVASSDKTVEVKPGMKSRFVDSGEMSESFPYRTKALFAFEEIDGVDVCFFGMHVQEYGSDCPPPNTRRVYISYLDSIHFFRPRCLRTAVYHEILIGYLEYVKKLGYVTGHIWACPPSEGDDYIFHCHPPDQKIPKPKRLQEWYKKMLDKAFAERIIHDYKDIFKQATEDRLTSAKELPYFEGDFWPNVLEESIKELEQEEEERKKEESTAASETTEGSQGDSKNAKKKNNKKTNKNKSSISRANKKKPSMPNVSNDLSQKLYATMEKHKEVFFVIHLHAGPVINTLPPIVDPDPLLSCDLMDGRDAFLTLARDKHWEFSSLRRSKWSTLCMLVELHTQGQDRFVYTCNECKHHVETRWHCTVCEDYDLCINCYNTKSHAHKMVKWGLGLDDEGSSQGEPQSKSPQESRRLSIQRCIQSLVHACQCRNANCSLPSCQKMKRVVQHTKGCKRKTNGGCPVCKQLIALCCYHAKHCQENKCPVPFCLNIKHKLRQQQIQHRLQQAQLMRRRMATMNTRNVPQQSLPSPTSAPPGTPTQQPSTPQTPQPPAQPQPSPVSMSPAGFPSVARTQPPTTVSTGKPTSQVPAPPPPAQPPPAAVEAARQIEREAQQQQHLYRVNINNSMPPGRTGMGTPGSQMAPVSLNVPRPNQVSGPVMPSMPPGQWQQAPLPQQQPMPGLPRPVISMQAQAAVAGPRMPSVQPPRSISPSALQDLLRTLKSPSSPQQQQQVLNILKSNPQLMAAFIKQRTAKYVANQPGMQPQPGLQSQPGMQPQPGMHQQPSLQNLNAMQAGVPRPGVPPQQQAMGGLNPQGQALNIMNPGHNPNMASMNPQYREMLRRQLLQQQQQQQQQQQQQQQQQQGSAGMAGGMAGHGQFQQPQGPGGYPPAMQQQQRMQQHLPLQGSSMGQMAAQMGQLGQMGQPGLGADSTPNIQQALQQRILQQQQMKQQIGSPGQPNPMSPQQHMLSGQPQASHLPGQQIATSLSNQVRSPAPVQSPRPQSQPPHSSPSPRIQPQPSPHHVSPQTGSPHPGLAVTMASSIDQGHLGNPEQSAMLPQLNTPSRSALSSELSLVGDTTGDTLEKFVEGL

One may read the DC50 as the midpoint of the concentration-degradation curve. Low readings indicate degradation at low concentration, high ones degradation only at high concentration. Usually Dmax stands for the greatest extent of degradation seen. Higher therefore signals deep degradation. `Cc1cc2c(N3CCCc4nc(-c5ccc(C(=O)NCC#Cc6cc7c(C8CCC(=O)NC8=O)nccc7n6C)nc5)ncc43)cc(C3CCOCC3)cc2n(C)c1=O` (centres unmarked) [Example B136, 5-(5-(1,3-dimethyl-2-oxo-7-(tetrahydro-2H-pyran-4-yl)-1,2-dihydroquinolin-5-yl)-5,6,7,8-tetrahydropyrido[3,2-d]pyrimidin-2-yl)-N-(3-(4-(2,6-dioxopiperidin-3-yl)-1-methyl-1H-pyrrolo[3,2-c]pyridin-2-yl)prop-2-yn-1-yl) picolinamide]: in assay [1], the DC50 is over 1000 nM and the Dmax is under 20%. In assay [2], this compound gave a Dmax of 60 to 79% and a DC50 of 1 to 9.9 nM.

In assay [1], `CC(C)c1cc(-c2cccc3cc(-c4ccc(C(=O)NCC#Cc5ccc6c(c5)c(C5CCC(=O)NC5=O)nn6C)nc4)ncc23)cc2c1n(C)c(=O)n2C` (centres unmarked) [Example A5, N-(3-(3-(2,6-Dioxopiperidin-3-yl)-1-methyl-1H-indazol-5-yl)prop-2-yn-1-yl)-5-(8-(7-isopropyl-1,3-dimethyl-2-oxo-2,3-dihydro-1H-benzo[d]imidazol-5-yl)isoquinolin-3-yl)picolinamide] displayed a DC50 of 10 to 99 nM and a maximal degradation (Dmax) of over 80%. Moreover, in assay [2], the Dmax is over 80% and the DC50 is 1 to 9.9 nM.

On to `Cc1cc(-c2ncc3c(n2)CCCN3c2cc(C3CCOCC3)cc3c2cc(C)c(=O)n3C)cnc1C(=O)NCC#Cc1cc2c(C3CCC(=O)NC3=O)cccc2s1` (centres unmarked) [Example B165, 5-(5-(1,3-dimethyl-2-oxo-7-(tetrahydro-2H-pyran-4-yl)-1,2-dihydroquinolin-5-yl)-5,6,7,8-tetrahydropyrido[3,2-d]pyrimidin-2-yl)-N-(3-(4-(2,6-dioxopiperidin-3-yl)benzo[b]thiophen-2-yl)prop-2-yn-1-yl)-3-methylpicolinamide], for which, in assay [1], the DC50 was 10 to 99 nM and the maximal degradation (Dmax) fell in the range of 20 to 39%. In assay [2], this compound displayed a Dmax of over 80% and a DC50 of 1 to 9.9 nM.

In assay [1], `Cc1cc2c(N3CCCc4nc(-c5ccc(C(=O)NCC#Cc6cc7c(C8CCC(=O)NC8=O)cccc7o6)nc5)ncc43)cc(C3CCOCC3)nc2n(C)c1=O` (centres unmarked) [Example B47, 5-(5-(6,8-dimethyl-7-oxo-2-(tetrahydro-2H-pyran-4-yl)-7,8-dihydro-1,8-naphthyridin-4-yl)-5,6,7,8-tetrahydropyrido[3,2-d]pyrimidin-2-yl)-N-(3-(4-(2,6-dioxopiperidin-3-yl)benzofuran-2-yl)prop-2-yn-1-yl)picolinamide] came in with a DC50 of over 1000 nM and a Dmax of under 20%. In assay [2], this compound came in with a Dmax of over 80% and a DC50 of under 1 nM.

For the compound `Cc1cc2c(N3CCCc4nc(-c5ccc(C(=O)NCC#Cc6ccc7occ(C8CCC(=O)NC8=O)c7c6)nc5)ncc43)cc(Cl)cc2n(C)c1=O` (centres unmarked) [Example B119, 5-(5-(7-chloro-1,3-dimethyl-2-oxo-1,2-dihydroquinolin-5-yl)-5,6,7,8-tetrahydro[3,2-d]pyrimidin-2-yl)-N-(3-(3-(2,6-dioxopiperidin-3-yl)benzofuran-5-yl)prop-2-yn-1-yl) picolinamide], in assay [1], the DC50 was over 1000 nM and the Dmax was under 20%. In assay [2], the Dmax lay within 60 to 79% and the half-maximal degradation concentration (DC50) was 1 to 9.9 nM.

Regarding `Cc1cc2c(N3CCCc4nc(-c5ccc(C(=O)NCC#Cc6cc7c([C@H]8CCC(=O)NC8=O)cccc7o6)nc5)ncc43)cc(C3CCOCC3)cc2n(C)c1=O` [Example B38, (R)-5-(5-(1,3-dimethyl-2-oxo-7-(tetrahydro-2H-pyran-4-yl)-1,2-dihydroquinolin-5-yl)-5,6,7,8-tetrahydropyrido[3,2-d]pyrimidin-2-yl)-N-(3-(4-(2,6-dioxopiperidin-3-yl)benzofuran-2-yl)prop-2-yn-1-yl)picolinamide], the DC50 was over 1000 nM in assay [1] and under 1 nM in assay [2]. In addition, the Dmax in assay [1] is under 20%; in assay [2] it was over 80%.

Turning to `Cc1cc(-c2cc3cccc(-c4cc(C(C)C)c5c(c4)n(C)c(=O)n5C)c3cn2)cnc1C(=O)NCC#Cc1ccc2c(c1)c(C1CCC(=O)NC1=O)nn2C` (centres unmarked) [Example A269, N-(3-(3-(2,6-dioxopiperidin-3-yl)-1-methyl-1H-indazol-5-yl)prop-2-yn-1-yl)-5-(8-(7-isopropyl-1,3-dimethyl-2-oxo-2,3-dihydro-1H-benzo[d]imidazol-5-yl)iso-quinolin-3-yl)-3-methylpicolinamide], the results for the half-maximal degradation concentration (DC50) in assay [1] and in assay [2] were 10 to 99 nM and 1 to 9.9 nM, respectively. Also, the Dmax in assay [1] and in assay [2] was over 80% in each case.

For `Cc1cc2c(N3CCCc4nc(-c5ccc(C(=O)NCC#Cc6cc7c(C8CCC(=O)NC8=O)cccc7s6)nc5)ncc43)cc(C3CCOCC3)cc2n(C)c1=O` (centres unmarked) [Example B79, 5-(5-(1,3-dimethyl-2-oxo-7-(tetrahydro-2H-pyran-4-yl)-1,2-dihydroquinolin-5-yl)-5,6,7,8-tetrahydropyrido[3,2-d]pyrimidin-2-yl)-N-(3-(4-(2,6-dioxopiperidin-3-yl)benzo[b]thiophen-2-yl)prop-2-yn-1-yl)picolinamide], in assay [1], the DC50 was over 1000 nM and the Dmax is under 20%. In assay [2], the Dmax was over 80% and the DC50 was 1 to 9.9 nM.

In the case of `Cc1cc2c(N3CCOc4cc(-c5ccc(C(=O)NCC#Cc6ccc7occ(C8CCC(=O)NC8=O)c7c6)nc5)ncc43)cc(F)cc2n(C)c1=O` (centres unmarked) [Example B123, N-(3-(3-(2,6-dioxopiperidin-3-yl)benzofuran-5-yl)prop-2-yn-1-yl)-5-(4-(7-fluoro-1,3-dimethyl-2-oxo-1,2-dihydroquinolin-5-yl)-3,4-dihydro-2H-pyrido[4,3-b][1,4]oxazin-7-yl)picolinamide], in assay [1], the DC50 is over 1000 nM and the Dmax was under 20%. For the same compound, in assay [2], the Dmax was over 80% and the DC50 was 1 to 9.9 nM.

In the case of `[2H]C1COCCC1([2H])c1cc(N2CCCc3nc(-c4ccc(C(=O)NCC#Cc5cc6c(C7CCC(=O)NC7=O)cccc6o5)nc4)ncc32)c2cc(C)c(=O)n(C)c2c1` (centres unmarked) [Example B23, 5-(5-(1,3-dimethyl-2-oxo-7-(tetrahydro-2H-pyran-4-yl-3,4-d2)-1,2-dihydroquinolin-5-yl)-5,6,7,8-tetrahydropyrido[3,2-d]pyrimidin-2-yl)-N-(3-(4-(2,6-dioxopiperidin-3-yl)benzofuran-2-yl)prop-2-yn-1-yl)picolinamide], in assay [1], the DC50 lay within 100 to 999 nM and the Dmax is under 20%. In assay [2], this compound had a Dmax of over 80% and a DC50 of 1 to 9.9 nM.

In assay [1], `Cc1cc2c(N3CCCc4nc(-c5ccc(C(=O)NCC#Cc6ccc7c(c6)c(C6CCC(=O)NC6=O)nn7C)nc5)ncc43)cc(C3CCOCC3)cc2n(C)c1=O` (centres unmarked) [Example B154, 5-(5-(1,3-dimethyl-2-oxo-7-(tetrahydro-2H-pyran-4-yl)-1,2-dihydroquinolin-5-yl)-5,6,7,8-tetrahydropyrido[3,2-d]pyrimidin-2-yl)-N-(3-(3-(2,6-dioxopiperidin-3-yl)-1-methyl-1H-indazol-5-yl)prop-2-yn-1-yl)picolinamide] registered a DC50 of 1 to 9.9 nM and a Dmax of 60 to 79%. In assay [2], this compound returned a Dmax of over 80% and a DC50 of 1 to 9.9 nM.

Values taken from patent publication US20250114345A1, “COMPOUNDS AND COMPOSITIONS AS CBP/P300 DEGRADERS AND USES THEREOF” (Oncopia Therapeutics, Inc. d/b/a/ SK Life Science Labs, priority 2023, published 2025).
